In one series the test system is P388 murine leukemia. The conditions noted are these: cited from earlier work.
For series [1], the system named is murine leukemia (P388) cells. The following applies: cited from earlier work.
In another series the test system is Candida albicans. Nature of the series: Antifungal microtiter broth assay. The following applies: 24 hours, 37° C., RPMI medium, scored visually. The format is cell-based. As to the method: Preparation of Stocks Cultures of Candida albicans. Freeze-dried C. albicans yeast stocks (ATCC 90028) were each resuspended in 1 mL sterile distilled, de-ionized water. Slants were made with five mL of MPG agar (2% (w/v) malt extract, 2% (w/v) glucose, 0.1% (w/v) bacto-peptone, 1.5% (w/v) agar) in 16×125 mm disposable glass culture tubes, inoculated with approximately […] of the above cell suspension, incubated at 25° C. for 7 days and then frozen at −80° C. To prepare glycerol stocks, a slant was thawed and the yeast cells were resuspended in 5 mL sterile distilled, de-ionized water. This 5 mL cell suspension was used to inoculate 50 mL of Sabouraud Dextrose Broth (3% (w/v) [Gibco]) in a 250 mL Ehrlenmeyer flask and was incubated 18-24 hours at 37° C., 180 rpm. Fifty milliliters of Sabouraud Dextrose Broth in a 250 mL Ehrlenmeyer flask were inoculated with 1×10^7 cells per mL of the previous culture and grown under the same conditions. After 18-24 hours, sufficient glycerol was added to this culture to make a 10% (v/v) solution (final concentration). This solution was aliquoted in 1 mL portions, frozen on dry ice, and stored at −50° C. A thawed glycerol stock was used to inoculate 50 mL Sabouraud's Dextrose Broth in a 250 mL Ehrlenmeyer flask and grown for 18-24 hours, at 37° C., 180 rpm. This culture was used to inoculate 96-well microtiter plates [Nunc] at 2×10^3 cells per 200 μL per well in liquid RPMI medium (RPMI-1640 [Gibco], 0.165 M MOPS, pH 7.0).
(§1) Each well of a 96-well microtiter plate contained 200 μL of inoculum of C. albicans or A. fumigatus and 0.1 to 125 μg/mL of marine extract in DMSO. Controls for each assay were 0.025 to 16 μg/mL of amphotericin B, and 2 μL of DMSO. Culture plates were incubated for 24 or 48 hours (for C. albicans and A. fumigatus respectively) at 37° C., 120 rpm and scored visually using a light microscope. […] Percent inhibition was estimated. The Minimum Inhibitory Concentration was determined. Samples were considered active if they inhibited 50% or more growth.

The test system of another series is Aspergillus fumigatus. The series is described as follows: Antifungal microtiter broth assay. The series is classed as cell-based. The conditions noted are these: 48 hours, 37° C., RPMI medium, scored visually. As to the method:
Preparation of Stock Cultures of Aspergillus fumigatus. Freeze-dried A. fumigatus stocks (ATCC 16424) were resuspended in 1 mL sterile distilled, de-ionized water. Slants were made with five mL of MPG agar (2% (w/v) malt extract, 2% (w/v) glucose, 0.1% (w/v) bacto-peptone, 1.5% (w/v) agar) in 16×125 mm disposable glass culture tubes, inoculated with approximately 50 μL of the above cell suspension, incubated at 25° C. for 7 days and then frozen at −80° C. To prepare glycerol stocks, a slant was thawed and conidia were resuspended in 5 mL sterile distilled, de-ionized water. Two hundred mL of MPG agar (2% (w/v) malt extract, 2% (w/v) glucose, 0.1% (w/v) bacto-peptone, 1.5% (w/v) agar) in a 1000 mL Ehrlenmeyer flask were inoculated with this 5 mL cell suspension, incubated 5-7 days at 37° C., and then frozen at −20° C. This flask was thawed and conidia were resuspended in 20 mL of sterile distilled, de-ionized water. Sufficient glycerol was added to this 20 mL suspension to make a 10% (v/v) solution (final concentration). This solution was aliquoted in 1 mL portions, frozen on dry ice, and stored at −50° C. A thawed glycerol stock was used to inoculate 96-well microtiter plates at 2×10^4 conidia per 200 μL per well in liquid RPMI medium (RPMI-1640 [Gibco], 0.165 M MOPS, pH 7.0).
as §1

The target in a further series is T1, cdc25a (Homo sapiens, UniProt P30304).
T1 sequence (P30304 1-524): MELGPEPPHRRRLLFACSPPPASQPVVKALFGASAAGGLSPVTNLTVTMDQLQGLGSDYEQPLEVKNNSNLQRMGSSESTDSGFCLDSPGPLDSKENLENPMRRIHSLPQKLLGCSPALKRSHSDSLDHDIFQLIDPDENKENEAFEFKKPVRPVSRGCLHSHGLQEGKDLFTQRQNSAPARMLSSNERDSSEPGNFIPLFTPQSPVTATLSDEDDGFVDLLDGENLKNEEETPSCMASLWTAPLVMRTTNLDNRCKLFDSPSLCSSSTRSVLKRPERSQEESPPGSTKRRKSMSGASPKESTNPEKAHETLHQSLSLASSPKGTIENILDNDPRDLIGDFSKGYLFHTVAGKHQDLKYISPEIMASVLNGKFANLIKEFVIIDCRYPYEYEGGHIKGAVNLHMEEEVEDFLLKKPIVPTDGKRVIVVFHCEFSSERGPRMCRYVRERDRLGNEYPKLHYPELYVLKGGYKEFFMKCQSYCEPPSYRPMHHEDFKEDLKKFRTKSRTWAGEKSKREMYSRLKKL
The following applies: cited from earlier work.

The test system of another series is S. cerevisiae. The following applies: at 100 mg/disk; cited from earlier work.
The subject of a further series is P. atrovenetum. The following applies: at 100 mg/disk; cited from earlier work.
Series [2] concerns cardiac sarcoplasmic reticulum. The conditions noted are these: cited from earlier work.

This is an account of results in patent US6521661B1, “Cyclic peroxides as novel antifungal agents” (Harbor Branch Oceanographic Institution, Inc., priority 2000, dated 2003).

Converted amounts (≈) assume the structure as drawn.

For `CC/C=C/C(CC)CC(C)CC1(CC)C[C@H](CC)[C@H](CC(=O)O)OO1` (stereo partly shown), the “IC50 against P388 murine leukemia” value with P388 murine leukemia was 500 µg/mL (≈ 1410 µM).

With `COC(=O)C[C@@]1(C)C[C@](C)(CC(C)CCCCCCc2ccccc2)OO1` (stereo partly shown) [Epiplakinic acid E methyl ester], the “Cytotoxicity against P388 cells” value in series [1] was “Cytotoxicity”.

Usually IC50 stands for the point on the concentration scale where inhibition reaches its midpoint. High values mean lower potency, low ones higher potency. Broadly, the IC90 is the concentration needed for an effect of 90%. Low readings indicate an effect from little substance, high ones a need for much substance. Turning to `CC/C=C/C=C/C=C/CCCCCCCC[C@]1(C)C[C@](C)(CC(=O)O)OO1` [Peroxyacid 1], the IC50 in the series with Candida albicans and in the series with Aspergillus fumigatus was 25 µg/mL (≈ 66 µM) each time. Further, the IC90 with Candida albicans and with Aspergillus fumigatus was 25 µg/mL (≈ 66 µM) each time.

Take `CC/C=C/C=C/C=C/CCCCCCCC[C@]1(C)C[C@@](C)(CC(=O)O)OO1` [Peroxyacid 2]: in the series on Candida albicans, the IC50 worked out at 25 µg/mL (≈ 66 µM) and it took 25 µg/mL (≈ 66 µM) to reach the 90% level (IC90). In the series with Aspergillus fumigatus, this molecule gave an IC50 of 25 µg/mL (≈ 66 µM) and an IC90 of 25 µg/mL (≈ 66 µM).

Take `CC(CCCCCC/C=C/C=C/c1ccccc1)C[C@]1(C)C[C@@](C)(CC(=O)O)OO1` (stereo partly shown) [Peroxyacid 3]: in the series on Candida albicans, inhibition was half-maximal at 31.2 µg/mL (≈ 75.3 µM) (IC50) and the IC90 is 62.5 µg/mL (≈ 151 µM). In the series with Aspergillus fumigatus, this molecule displayed a half-maximal inhibitory concentration (IC50) of 62.5 µg/mL (≈ 151 µM) and an IC90 of 62.5 µg/mL (≈ 151 µM).

In the series on Candida albicans, `CC(CCCCCC/C=C/C=C/c1ccccc1)C[C@]1(C)C[C@](C)(CC(=O)O)OO1` (stereo partly shown) [Peroxyacid 4] came in with a 50% inhibitory concentration (IC50) of 31.2 µg/mL (≈ 75.3 µM) and an IC90 of 31.2 µg/mL (≈ 75.3 µM). In the series on Aspergillus fumigatus, this molecule had a half-inhibitory concentration (IC50) of 31.2 µg/mL (≈ 75.3 µM) and an IC90 of 31.2 µg/mL (≈ 75.3 µM).

Turning to `C[C@]1(CCCCCCCCCCc2ccccc2)C[C@](C)(CC(=O)O)OO1` [Peroxyacid 5, Epiplakinic Acid h], the results for the IC50 with Candida albicans and in the series on Aspergillus fumigatus were 0.25 µg/mL (≈ 0.664 µM) and 0.5 µg/mL (≈ 1.33 µM), respectively. Moreover, the IC90 stood at 0.25 µg/mL (≈ 0.664 µM) with Candida albicans and 0.5 µg/mL (≈ 1.33 µM) in the series on Aspergillus fumigatus. Also, the “Inhibition of the enzyme cdc25a” value at cdc25a is “inhibitor”.

For the molecule `CC/C=C/C(CC)C/C=C/[C@@]1(CC)C[C@H](CC)[C@@H](CC(=O)O)OO1` (stereo partly shown) [Peroxyacid 6], in the series with Candida albicans, 2 µg/mL (≈ 5.91 µM) corresponded to half-maximal inhibition (IC50) and it took 3.9 µg/mL (≈ 11.5 µM) to reach the 90% level (IC90). In the series on Aspergillus fumigatus, half-maximal inhibition (IC50) required 5.6 µg/mL (≈ 16.5 µM) and the 90% effect concentration (IC90) worked out at 5.6 µg/mL (≈ 16.5 µM).

For `CC(/C=C/c1ccccc1)C/C=C/C(C)CC1(C)CC(C)(CC(=O)O)OO1` (stereo not shown) [Plakinic acid A], the “Antifungal activity vs. S. cerevisiae (zone)” value in the series with S. cerevisiae is 24 mm. The “Antifungal activity vs. P. atrovenetum (zone)” value in the series on P. atrovenetum is recorded as 25 mm.

For `CC(/C=C/c1ccccc1)C/C=C/C(C)C[C@]1(C)C[C@H](C)[C@@H](CC(=O)O)OO1` (stereo partly shown) [Plakinic acid B], in the series on S. cerevisiae, the “Antifungal activity vs. S. cerevisiae (zone)” value is listed as 20 mm. Moreover, the “Antifungal activity vs. P. atrovenetum (zone)” value in the series with P. atrovenetum is listed as 18 mm.

On to `CC/C=C/C(CC)CCC[C@@]1(CC)C[C@H](CC)[C@H](CC(=O)OC)OO1` (stereo partly shown) [Plakortide F], for which, in series [2], the “Ca2+ uptake by the cardiac sarcoplasmic reticulum” value (from here on “Ca2+ uptake”) was “significantly enhanced”.

Regarding Plakortide G, in series [2], the “Ca2+ uptake” value is listed as “significantly enhanced”.

As to Plakortide H, the “Ca2+ uptake” value in series [2] is “significantly enhanced”.
